In patent publication US9028856B2, “Synergistic pesticide compositions” (priority 2008, dated 2015):
Like-named read-outs stand apart in the source and are kept apart here.

What was measured:
Format in all cases: in vivo
[1] = test system: Cimex lectularius (adults); assay: Efficacy on glazed tiles (acetone solutions or EC formulations), continuous exposure; settings: for mortality at 50 mg/m2 / mortality at 10 mg/m2: Cimex lectularius, read-out: % KD and Mortality
Procedure: Test Insects: Culex quinquefasciatus (adults) (3 minutes exposure time according to USDA Petri Dish Method), Musca domestica (adults), susceptible and resistant strain, Blattella germanica (males), Cimex lectularius (adults) (all: continuous exposure time)
Application: The EC formulation (diluted with water 1:9) were applied as 0.85 ml solutions onto glazed tiles (15 cm×15 cm)
Evaluation: Knock down after 15, and 30 minutes, 1, 2, 3, 4, 6 and 24 hours (mortality)
Test Insects: Culex quinquefasciatus (adults) (3 minutes exposure time according to USDA Petri Dish Method), Cimex lectularius (adults), Acheta domesticus (middle nymphs) (both: continuous exposure time)
Application: The active ingredients were applied as 1 ml acetone solutions onto glazed tiles (15 cm×15 cm)
(§1) Evaluation: Knock down after 3, 9 (mosquitoes only), 15, and 30 minutes, 1, 2, 3, 4 and 24 hours (mortality)
Test Insects: Culex quinquefasciatus (adults) (3 minutes exposure time according to USDA Petri Dish Method), Cimex lectularius (adults), (continuous exposure time)
Test Insects: Cimex lectularius, Culex quinquefasciatus, Musca domestica (all adults, susceptible strains)
Application: The active ingredients were applied as 1 ml acetone solutions onto glazed tiles (15 cm×15 cm), continuous exposure time

[2] = test system: Blattella germanica (males, susceptible); assay: Efficacy of EC formulations on glazed/unglazed tiles, continuous exposure; settings: EC formulation
Procedure: All surfaces were provided with talcum-coated glass rings (diameter 9.5 cm, height 5.5 cm) one day later.
The test insects were anesthetized with CO2, 20 individuals were placed onto the treated surfaces and the glass ring was covered with wire gauze ring. […]
Each test consisted of at least one replicate and any additional replicates are noted. […]
Test Insects: Culex quinquefasciatus (adults, susceptible) (3 minutes exposure time according to USDA Petri Dish Method), Musca domestica (adults, susceptible and resistant), Blattella germanica (males, susceptible) (both: continuous exposure time)
Formulations: Insecticide with or without 10% Compound A (as EC), to be diluted with water (1 part formulation+9 parts water)
Application: 1 ml of the diluted formulations was applied by pipette onto glazed tiles (15×15 cm)
as §1

Aedes aegypti mosquito = assay: USDA Petri Dish Method, 3 min exposure to treated glazed tile
How it was run: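 USDA Petri Dish screen: groups of twenty female Aedes aegypti (4-6 days old) held 3 minutes on dried acetone-based treatments (with/without adjuvant), then transferred to untreated card. Replicated three or more times; knockdown followed over time, mortality recorded 24 hours post-exposure with sucrose-soaked cotton available.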

[3] = test system: susceptible/normal German cockroach (Monheim strain), Blattella germanica; assay: Knockdown/mortality of male cockroaches under continuous exposure on treated glazed tile
How it was run: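 Male cockroaches continuously exposed on treated glazed tile, dried overnight before exposure; at least three replicates. Knockdown/mortality scored at intervals from 5 or 10 min, over runs lasting 20 min to 24 h depending on test.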

[4] = 0.1% = 50 mg Bendiocarb/m^2 on glazed tiles
[5] = 15′, on tiles, insecticide alone (imidacloprid 50 mg/m^2, Bendiocarb 50 mg/m^2, Ethiprole 10 mg/m^2, DTM 1 mg/m^2), no Compound A
[6] = 1 h, on tiles, insecticide alone (imidacloprid 50 mg/m^2, Bendiocarb 50 mg/m^2, Ethiprole 10 mg/m^2, DTM 1 mg/m^2), no Compound A
[7] = 2 h, on tiles, insecticide alone (imidacloprid 50 mg/m^2, Bendiocarb 50 mg/m^2, Ethiprole 10 mg/m^2, DTM 1 mg/m^2), no Compound A
[8] = 3 h, on tiles, insecticide alone (imidacloprid 50 mg/m^2, Bendiocarb 50 mg/m^2, Ethiprole 10 mg/m^2, DTM 1 mg/m^2), no Compound A
[9] = 4 h, on tiles, insecticide alone (imidacloprid 50 mg/m^2, Bendiocarb 50 mg/m^2, Ethiprole 10 mg/m^2, DTM 1 mg/m^2), no Compound A
[10] = 6 h, on tiles, insecticide alone (imidacloprid 50 mg/m^2, Bendiocarb 50 mg/m^2, Ethiprole 10 mg/m^2, DTM 1 mg/m^2), no Compound A
[11] = 24 h, on tiles, insecticide alone (imidacloprid 50 mg/m^2, Bendiocarb 50 mg/m^2, Ethiprole 10 mg/m^2, DTM 1 mg/m^2), no Compound A
[12] = 0.1% = 50 mg imidacloprid/m^2 on glazed tiles
[13] = Table 48, fipronil/adjuvant in acetone, glazed tile, 3 min exposure
[14] = Table 53, fipronil/adjuvant in acetone, glazed tile, Monheim strain
[15] = Table 56, Aedes aegypti, glazed tile, 3 min exposure
[16] = Table 61, German cockroach (Monheim), glazed tile, continuous exposure
[17] = 0.02% = 10 mg Ethiprole/m^2 on glazed tiles

Compound: CNC(=O)Oc1cccc2c1OC(C)(C)O2 [bendiocarb]
- % KD and Mortality ([1]; 30′, on tiles, insecticide alone (imidacloprid 50 mg/m^2, Bendiocarb 50 mg/m^2, Ethiprole 10 mg/m^2, DTM 1 mg/m^2), no Compound A): 100%
- mortality at 50 mg/m2 ([1]; 1 h): 100%
- mortality at 50 mg/m2 ([1]; 2 h): 100%
- mortality at 50 mg/m2 ([1]; 3 h): 100%
- mortality at 50 mg/m2 ([1]; 4 h): 100%
- mortality at 50 mg/m2 ([1]; 6 h): 100%
- mortality at 50 mg/m2 ([1]; 24 h): 100%
- mortality at 50 mg/m2 [1]: 100%
- % KD and Mortality 15′ [2, 4]: 0%
- % KD and Mortality 30′ [2, 4]: 40%
- % KD and Mortality 1 h [2, 4]: 60%
- % KD and Mortality 2 h [2, 4]: 60%
- % KD and Mortality 3 h [2, 4]: 80%
- % KD and Mortality 4 h [2, 4]: 80%
- % KD and Mortality 6 h [2, 4]: 80%
- % KD and Mortality 24 h [2, 4]: 80%

Compound: O=[N+]([O-])NC1=NCCN1Cc1ccc(Cl)nc1 [imidacloprid]
- mortality at 50 mg/m2 [1, 5]: 100%
- mortality at 50 mg/m2 [1, 6]: 100%
- mortality at 50 mg/m2 [1, 7]: 100%
- mortality at 50 mg/m2 [1, 8]: 100%
- mortality at 50 mg/m2 [1, 9]: 100%
- mortality at 50 mg/m2 [1, 10]: 100%
- mortality at 50 mg/m2 [1, 11]: 100%
- % KD and Mortality 15′ [2, 12]: 0%
- % KD and Mortality 30′ [2, 12]: 0%
- % KD and Mortality 1 h [2, 12]: 20%
- % KD and Mortality 2 h [2, 12]: 80%
- % KD and Mortality 3 h [2, 12]: 100%
- % KD and Mortality 4 h [2, 12]: 100%
- % KD and Mortality 6 h [2, 12]: 100%
- % KD and Mortality 24 h [2, 12]: 100%

Compound: N#Cc1nn(-c2c(Cl)cc(C(F)(F)F)cc2Cl)c(N)c1[S+]([O-])C(F)(F)F (centres unmarked) [Fipronil (.01%)]
- Average % Knockdown & Mortality after 15 min (Aedes aegypti mosquito; [13]): 5%
- Average % Knockdown & Mortality after 30 min (Aedes aegypti mosquito; [13]): 6%
- Average % Knockdown & Mortality after 60 min (Aedes aegypti mosquito; [13]): 19%
- Average % Knockdown & Mortality after 4 hr (Aedes aegypti mosquito; [13]): 42%
- Average % Knockdown & Mortality after 6 hr (Aedes aegypti mosquito; [13]): 56%
- Average % Knockdown & Mortality after 24 hr (Aedes aegypti mosquito; [13]): 72%
- Average % Knockdown & Mortality after 60 min [3, 14]: 0%
- Average % Knockdown & Mortality after 3 hr [3, 14]: 7%
- Average % Knockdown & Mortality after 5 hr [3, 14]: 7%
- Average % Knockdown & Mortality after 24 hr [3, 14]: 100%

Compound: N#Cc1nn(-c2c(Cl)cc(C(F)(F)F)cc2Cl)c(N)c1[S+]([O-])C(F)(F)F (centres unmarked) [Fipronil (.001%)]
- Average % Knockdown & Mortality after 15 min (Aedes aegypti mosquito; [13]): 0%
- Average % Knockdown & Mortality after 30 min (Aedes aegypti mosquito; [13]): 0%
- Average % Knockdown & Mortality after 60 min (Aedes aegypti mosquito; [13]): 0%
- Average % Knockdown & Mortality after 4 hr (Aedes aegypti mosquito; [13]): 0%
- Average % Knockdown & Mortality after 6 hr (Aedes aegypti mosquito; [13]): 3%
- Average % Knockdown & Mortality after 24 hr (Aedes aegypti mosquito; [13]): 3%
- Average % Knockdown & Mortality after 60 min [3, 14]: 0%
- Average % Knockdown & Mortality after 3 hr [3, 14]: 0%
- Average % Knockdown & Mortality after 5 hr [3, 14]: 0%
- Average % Knockdown & Mortality after 24 hr [3, 14]: 40%

Compound: CC[S+]([O-])c1c(C#N)nn(-c2c(Cl)cc(C(F)(F)F)cc2Cl)c1N (centres unmarked) [Ethiprole (1%)]
- Average % Knockdown & Mortality after 4 hr (Aedes aegypti mosquito; [15]): 17%
- Average % Knockdown & Mortality after 6 hr (Aedes aegypti mosquito; [15]): 27%
- Average % Knockdown & Mortality after 24 hr (Aedes aegypti mosquito; [15]): 46%
- Average % Knockdown & Mortality after 2 hr (Aedes aegypti mosquito; Table 56, Aedes aegypti, glazed tile, 3 min exposure, adjuvant = Compound A 1% + Compound B 0.5%, 2 hr): 2%
- Average % Knockdown & Mortality after 3 hr [3, 16]: 13%
- Average % Knockdown & Mortality after 5 hr [3, 16]: 27%
- Average % Knockdown & Mortality after 24 hr [3, 16]: 73%
- Average % Knockdown & Mortality after 1 hr ([3]; Table 61, German cockroach (Monheim), glazed tile, continuous exposure, adjuvant = Compound A 1% + Compound B 0.5%, 1 hr): 0%

Compound: CC[S+]([O-])c1c(C#N)nn(-c2c(Cl)cc(C(F)(F)F)cc2Cl)c1N (centres unmarked) [ethiprole]
- mortality at 10 mg/m2 [1, 5]: 0%
- mortality at 10 mg/m2 [1, 6]: 0%
- mortality at 10 mg/m2 [1, 7]: 10%
- mortality at 10 mg/m2 [1, 8]: 10%
- mortality at 10 mg/m2 [1, 9]: 10%
- mortality at 10 mg/m2 [1, 10]: 70%
- mortality at 10 mg/m2 [1, 11]: 100%
- mortality rate (peak / increased over time), FIG. 50 (Aedes aegypti mosquito; ethiprole 0.01% AI with or without adjuvant): 15-18%
- mortality from 5 to 25 hours ([3]; ethiprole 0.01% in the absence of the adjuvant (FIG. 55)): 5-15%
- % KD and Mortality 15′ [2, 17]: 0%
- % KD and Mortality 30′ [2, 17]: 0%
- % KD and Mortality 1 h [2, 17]: 0%
- % KD and Mortality 2 h [2, 17]: 80%
- % KD and Mortality 3 h [2, 17]: 100%
- % KD and Mortality 4 h [2, 17]: 100%
- % KD and Mortality 6 h [2, 17]: 100%
- % KD and Mortality 24 h [2, 17]: 100%

Compound: CC1(C)[C@H](C(=O)O[C@H](C#N)c2cccc(Oc3ccccc3)c2)[C@@H]1C=C(Br)Br [deltamethrin (1%)]
- Average % Mortality after 4 min ([3]; 4 min, Table 32, aqueous deltamethrin/adjuvant, glazed tile, Monheim strain): 27%
- Average % Mortality after 8 min ([3]; 8 min, Table 32, aqueous deltamethrin/adjuvant, glazed tile, Monheim strain): 100%
- Average % Mortality after 12 min ([3]; 12 min, Table 32, aqueous deltamethrin/adjuvant, glazed tile, Monheim strain): 100%
- Average % Mortality after 20 min ([3]; 20 min, Table 32, aqueous deltamethrin/adjuvant, glazed tile, Monheim strain): 100%
